Structures can show the parent of a compound that is named as a salt.

In this assay the test system is phenol red excretion in mice. The assay is described as follows: Expectorant test, phenol red excretion method in mice. It counts as in vivo, ICR mice. How it is done:
• Animals: male ICR mice; • Drugs and reagents: Mucosolvan (ambroxol hydrochloride tablets), phenol red, sodium bicarbonate, protein BD-3; • Instruments: centrifuge (Sigma-3K15 type), balance (XS105DU type), Microplate tester (BIO-TEK type). • Experiment Grouping: • Solvent control group; • Mucosolvan 30 mg/kg group; • Protein BD-3, 20 mg/kg group, 50 mg/kg group.
The animals were fasted and water was taken freely 16 hours before the experiment. Orally administered Mucosolvan and different doses of protein BD-3 (administration volume 10 ml/kg) in groups, and the solvent control group was given the same volume of distilled water. One hour later, 2.5% phenol red solution was injected intraperitoneally. Mice were sacrificed by neck dislocation after 30 minutes. […] Measure and record the absorbance at 546 nm. According to the standard curve of phenol red, the excretion of phenol red was calculated.
Record the time point of oral administration, the time point of intraperitoneal injection of 2.5% phenol red solution, and the time point of taking the trachea respectively; The absorbance of each group of samples was measured by the microplate reader at 546 nm, Calculate the excretion of phenol red according to the standard curve of phenol red. […]

Under “Mucosolvan 30 mg/kg oral, X ± SEM, solvent control 0.506 ± 0.040”, `Nc1c(Br)cc(Br)cc1CN[C@H]1CC[C@H](O)CC1` [Mucosolvan, ambroxol hydrochloride, reference compound] came in with a Phenol red excretion of 1.061 ± 0.117 µg/mL. For the same molecule, where the note is “Mucosolvan 30 mg/kg, P<0.05”, the “Amount of phenol red excretion vs solvent control (in words)” value is given as “significantly increased”.

The values above are taken from US20240124556A1, “KERATIN BD-3, PREPARATION METHOD THEREFOR AND PHARMACEUTICAL COMPOSITION AND USE THEREOF” (INSTITUTE OF MATERIA MEDICA, CHINESE ACADEMY OF MEDICAL …, priority 2019, published 2024).
